Test results as given in US20250230193A1, “CYCLIC COMPOUND HAVING SELECTIVE KRAS INHIBITORY EFFECT ON HRAS AND NRAS” (CHUGAI SEIYAKU KABUSHIKI KAISHA, priority 2022, published 2025).

Legend:
[1] = biological target: GDP-bound NRAS wild-type protein (Homo sapiens, UniProt P01111); test: Binding to NRAS by surface plasmon resonance (SPR), Single Cycle Kinetics; conditions: KD ratio NRAS/KRAS, class symbols
[2] = biological target: GDP-bound HRAS wild-type protein (Homo sapiens, UniProt P01112); test: Binding to HRAS by surface plasmon resonance (SPR), Single Cycle Kinetics; conditions: KD ratio HRAS/KRAS, class symbols
GDP-bound HRAS wild-type protein, sequence (P01112 whole entry): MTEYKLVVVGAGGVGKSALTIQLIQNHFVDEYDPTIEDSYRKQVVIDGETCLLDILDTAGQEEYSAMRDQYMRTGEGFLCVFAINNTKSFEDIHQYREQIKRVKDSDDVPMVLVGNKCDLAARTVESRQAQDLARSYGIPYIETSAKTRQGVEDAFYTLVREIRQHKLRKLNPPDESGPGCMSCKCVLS

GDP-bound NRAS wild-type protein, sequence (P01111 whole entry): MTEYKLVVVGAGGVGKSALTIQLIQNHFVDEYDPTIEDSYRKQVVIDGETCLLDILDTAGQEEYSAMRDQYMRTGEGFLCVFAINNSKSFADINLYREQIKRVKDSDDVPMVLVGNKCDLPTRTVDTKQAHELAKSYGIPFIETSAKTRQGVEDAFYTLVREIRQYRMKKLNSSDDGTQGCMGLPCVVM

SMILES | NRAS/KRAS (ratio of KD value with respect to GDP-bound NRAS wild-type protein to KD value with respect to KRAS) [1] | HRAS/KRAS (ratio of KD value with respect to GDP-bound HRAS wild-type protein to KD value with respect to KRAS) [2]
CCO[C@@H]1C[C@H]2C(=O)NC3(CC(C)(C)C3)C(=O)N(C)[C@@H](C3CCCC3)C(=O)N(C)[C@H](C(=O)N(C)C)CC(=O)N(C)[C@@H](COC)C(=O)N[C@@H]([C@@H](C)CC)C(=O)N(C3CC3)CC(=O)N(C)[C@H]3C/C=C\CCN(C3=O)[C@@H](CC3CCCCC3)C(=O)N(C)CC(=O)N[C@@H](CCc3cc(F)c(C(F)(F)F)c(F)c3)C(=O)N2C1 [PP2562] | B (a compound having 3 or more and less than 10 is denoted as B) | B (a compound having 3 or more and less than 10 is denoted as B)
CCO[C@@H]1C[C@H]2C(=O)NC3(CC(C)(C)C3)C(=O)N(C)[C@@H](C3CCCC3)C(=O)N(C)[C@H](C(=O)N(C)C)CC(=O)N(C)[C@@H](COC)C(=O)N[C@@H]([C@@H](C)CC)C(=O)N(C3CC3)CC(=O)N(C)[C@H]3C/C=C\CCN(C3=O)[C@@H](CC3CCCCC3)C(=O)N(C)CC(=O)N[C@@H](CCc3ccc(Cl)c(Cl)c3)C(=O)N2C1 [PP2563] | A (a compound having 10 or more and less than 20 is denoted as A) | A (a compound having 10 or more and less than 20 is denoted as A)
CCO[C@@H]1C[C@H]2C(=O)NC3(CC(C)(C)C3)C(=O)N(C)[C@@H](C(CC)CC)C(=O)N(C)[C@H](C(=O)N(C)C)CC(=O)N(C)[C@@H](COC)C(=O)N[C@@H]([C@@H](C)CC)C(=O)N(C3CC3)CC(=O)N(C)[C@H]3C/C=C\CCN(C3=O)[C@@H](CC3CCCCC3)C(=O)N(C)CC(=O)N[C@@H](CCc3cc(F)c(C(F)(F)F)c(F)c3)C(=O)N2C1 [PP2564] | A (a compound having 10 or more and less than 20 is denoted as A) | A (a compound having 10 or more and less than 20 is denoted as A)
CCC[C@H]1C(=O)N[C@@H]([C@@H](C)CC)C(=O)N(C2CC2)CC(=O)N(C)[C@H]2C/C=C\CCN(C2=O)[C@@H](CC2CCC(F)(F)CC2)C(=O)N(C)CC(=O)N[C@@H](CCc2cc(F)c(C(F)(F)F)c(F)c2)C(=O)N2C[C@H](OCC)C[C@H]2C(=O)NC2(CC(C)(C)C2)C(=O)N(C)[C@@H](C2CCCC2)C(=O)N(C)[C@H](C(=O)N(C)C)CC(=O)N1C [PP2566] | A (a compound having 10 or more and less than 20 is denoted as A) | B (a compound having 3 or more and less than 10 is denoted as B)
CCC[C@H]1C(=O)N[C@@H]([C@@H](C)CC)C(=O)N(C2CC2)CC(=O)N(C)[C@H]2C/C=C\CCN(C2=O)[C@@H](CC2CCC(F)(F)CC2)C(=O)N(C)CC(=O)N[C@@H](CCc2ccc(Cl)c(Cl)c2)C(=O)N2C[C@H](OCC)C[C@H]2C(=O)NC2(CC(C)(C)C2)C(=O)N(C)[C@@H](C2CCCC2)C(=O)N(C)[C@H](C(=O)N(C)C)CC(=O)N1C [PP2567] | A (a compound having 10 or more and less than 20 is denoted as A) | A (a compound having 10 or more and less than 20 is denoted as A)
CCO[C@@H]1C[C@H]2C(=O)NC3(CC(C)(C)C3)C(=O)N(C)[C@@H](C(CC)CC)C(=O)N(C)[C@H](C(=O)N(C)C)CC(=O)N(C)[C@@H](COC)C(=O)N[C@@H]([C@@H](C)CC)C(=O)N(C3CC3)CC(=O)N(C)[C@H]3C/C=C\CCN(C3=O)[C@@H](CC3CCC(F)(F)CC3)C(=O)N(C)CC(=O)N[C@@H](CCc3cc(F)c(C(F)(F)F)c(F)c3)C(=O)N2C1 [PP2568] | A (a compound having 10 or more and less than 20 is denoted as A) | B (a compound having 3 or more and less than 10 is denoted as B)
CCO[C@@H]1C[C@H]2C(=O)NC3(CC(C)(C)C3)C(=O)N(C)[C@@H](C(CC)CC)C(=O)N(C)[C@H](C(=O)N(C)C)CC(=O)N(C)[C@@H](COC)C(=O)N[C@@H]([C@@H](C)CC)C(=O)N(C3CC3)CC(=O)N(C)[C@H]3C/C=C\CCN(C3=O)[C@@H](CC3CCC(F)(F)CC3)C(=O)N(C)CC(=O)N[C@@H](CCc3ccc(Cl)c(Cl)c3)C(=O)N2C1 [PP2569] | AA (a compound having 20 or more is denoted as AA) | A (a compound having 10 or more and less than 20 is denoted as A)
CCC[C@H]1C(=O)N[C@@H]([C@@H](C)CC)C(=O)N(C2CC2)CC(=O)N(C)[C@H]2C/C=C\CCN(C2=O)[C@@H](Cc2ccc(C)cc2)C(=O)N(C)CC(=O)N[C@@H](CCc2cc(F)c(C(F)(F)F)c(F)c2)C(=O)N2C[C@H](OC(C)C)C[C@H]2C(=O)NC2(CC(C)(C)C2)C(=O)N(C)[C@@H](C2CCCC2)C(=O)N(C)[C@H](C(=O)N(C)C)CC(=O)N1C [PP2570] | A (a compound having 10 or more and less than 20 is denoted as A) | A (a compound having 10 or more and less than 20 is denoted as A)
CCC[C@H]1C(=O)N[C@@H]([C@@H](C)CC)C(=O)N(C2CC2)CC(=O)N(C)[C@H]2C/C=C\CCN(C2=O)[C@@H](Cc2ccc(C)cc2)C(=O)N(C)CC(=O)N[C@@H](CCc2ccc(Cl)c(Cl)c2)C(=O)N2C[C@H](OC(C)C)C[C@H]2C(=O)NC2(CC(C)(C)C2)C(=O)N(C)[C@@H](C2CCCC2)C(=O)N(C)[C@H](C(=O)N(C)C)CC(=O)N1C [PP2571] | A (a compound having 10 or more and less than 20 is denoted as A) | A (a compound having 10 or more and less than 20 is denoted as A)
CCC(CC)[C@H]1C(=O)N(C)[C@H](C(=O)N(C)C)CC(=O)N(C)[C@@H](COC)C(=O)N[C@@H]([C@@H](C)CC)C(=O)N(C2CC2)CC(=O)N(C)[C@H]2C/C=C\CCN(C2=O)[C@@H](Cc2ccc(C)cc2)C(=O)N(C)CC(=O)N[C@@H](CCc2cc(F)c(C(F)(F)F)c(F)c2)C(=O)N2C[C@H](OC(C)C)C[C@H]2C(=O)NC2(CC(C)(C)C2)C(=O)N1C [PP2572] | A (a compound having 10 or more and less than 20 is denoted as A) | A (a compound having 10 or more and less than 20 is denoted as A)
CCO[C@@H]1C[C@H]2C(=O)NC3(CC(C)(C)C3)C(=O)N(C)[C@@H](C3CCCC3)C(=O)N(C)[C@H](C(=O)N3CCCCC3)CC(=O)N(C)[C@H]3CCC/C=C/c4ccc(cc4)C[C@@H](C(=O)N(C)CC(=O)N[C@@H](CCc4cc(F)c(C(F)(F)F)c(F)c4)C(=O)N2C1)N1CC/C=C\C[C@@H](C1=O)N(C)C(=O)CN(C)C(=O)[C@H]([C@@H](C)CC)NC3=O [PP2573] | A (a compound having 10 or more and less than 20 is denoted as A) | A (a compound having 10 or more and less than 20 is denoted as A)
CCO[C@@H]1C[C@H]2C(=O)NC3(CC(C)(C)C3)C(=O)N(C)[C@@H](C3CCCC3)C(=O)N(C)[C@H](C(=O)N3CCCC3)CC(=O)N(C)[C@H]3CCC/C=C/c4ccc(cc4)C[C@@H](C(=O)N(C)CC(=O)N[C@@H](CCc4cc(F)c(C(F)(F)F)c(F)c4)C(=O)N2C1)N1CC/C=C\C[C@@H](C1=O)N(C)C(=O)CN(C)C(=O)[C@H]([C@@H](C)CC)NC3=O [PP2574, (1S,7S,11R,13S,19S,22S,26S,29S,35S,37Z,47E)-19-cyclopentyl-7-[2-[3,5-difluoro-4-(trifluoromethyl)phenyl]ethyl]-11-ethoxy-3,3′,3′,18,21,25,31,34-octamethyl-29-[(1S)-1-methylpropyl]-22-(pyrrolidine-1-carbonyl)spiro[3,6,9,15,18,21,25,28,31,34,41-undecazapentacyclo[24.15.10.2^43,46.1^35,41.0^9,13]tetrapentaconta-37,43(53),44,46(52),47-pentaene-16,1′-cyclobutane]-2,5,8,14,17,20,24,27,30,33,54-undecone] | A (a compound having 10 or more and less than 20 is denoted as A) | A (a compound having 10 or more and less than 20 is denoted as A)
CCO[C@@H]1C[C@H]2C(=O)NC3(CC(C)(C)C3)C(=O)N(C)[C@@H](C(CC)CC)C(=O)N(C)[C@H](C(=O)N(C)C)CC(=O)N(C)[C@H]3CCC/C=C/c4ccc(cc4)C[C@@H](C(=O)N(C)CC(=O)N[C@@H](CCc4cc(F)c(C(F)(F)F)c(F)c4)C(=O)N2C1)N1CC/C=C\C[C@@H](C1=O)N(C)C(=O)CN(C)C(=O)[C@H]([C@@H](C)CC)NC3=O [PP2575] | A (a compound having 10 or more and less than 20 is denoted as A) | A (a compound having 10 or more and less than 20 is denoted as A)
CCO[C@@H]1C[C@H]2C(=O)NC3(CC(C)(C)C3)C(=O)N(C)[C@@H](C(CC)CC)C(=O)N(C)[C@H](C(=O)N3CCCC3)CC(=O)N(C)[C@H]3CCC/C=C/c4ccc(cc4)C[C@@H](C(=O)N(C)CC(=O)N[C@@H](CCc4cc(F)c(C(F)(F)F)c(F)c4)C(=O)N2C1)N1CC/C=C\C[C@@H](C1=O)N(C)C(=O)CN(C)C(=O)[C@H]([C@@H](C)CC)NC3=O [PP2576] | A (a compound having 10 or more and less than 20 is denoted as A) | A (a compound having 10 or more and less than 20 is denoted as A)
